The target in this assay is T1, ABL1 M351T (Homo sapiens, UniProt P00519, M351T).
T1 construct: purchased Thermo Fisher Scientific (Life Technologies) SelectScreen
Nature of the assay: SelectScreen LanthaScreen. Format: binding. To be noted: read-out: % displacement. A digest of the protocol: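 NU5455 was profiled across the SelectScreen Broad panel of kinase activity and binding assays. Z'LYTE reactions such as CSF1R ran at apparent Km ATP, while the Adapta CAMK1 assay used ATP listed as 10. Values are given as percent.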

SMILES strings stand for the structures.

For the compound `CN(C(=O)CN1CCOCC1)c1ccc2sc3c(-c4cccc5c(=O)cc(N6CC7CCC(C6)O7)oc45)cccc3c2c1` [NU5455], the inhibition at 1 µM was -1%.

These data come from PMC6934184, “Selective DNA-PKcs inhibition extends the therapeutic index of localized radiotherapy and chemotherapy” (The Journal of Clinical Investigation, 2019).
